Among the data in patent US10428080B2, “TBK/IKK inhibitor compounds and uses thereof” (Merck Patent GmbH, priority 2015, dated 2019) are IC50 values, retold here.

Each structure is given as a SMILES string. Counter-ions that a name gives are not always drawn. Where only a bound is given, the exact number is not on record here.

In assay [1] the target is T1, TBK1 (Homo sapiens, UniProt Q9UHD2).
T1 sequence (Q9UHD2 1-729): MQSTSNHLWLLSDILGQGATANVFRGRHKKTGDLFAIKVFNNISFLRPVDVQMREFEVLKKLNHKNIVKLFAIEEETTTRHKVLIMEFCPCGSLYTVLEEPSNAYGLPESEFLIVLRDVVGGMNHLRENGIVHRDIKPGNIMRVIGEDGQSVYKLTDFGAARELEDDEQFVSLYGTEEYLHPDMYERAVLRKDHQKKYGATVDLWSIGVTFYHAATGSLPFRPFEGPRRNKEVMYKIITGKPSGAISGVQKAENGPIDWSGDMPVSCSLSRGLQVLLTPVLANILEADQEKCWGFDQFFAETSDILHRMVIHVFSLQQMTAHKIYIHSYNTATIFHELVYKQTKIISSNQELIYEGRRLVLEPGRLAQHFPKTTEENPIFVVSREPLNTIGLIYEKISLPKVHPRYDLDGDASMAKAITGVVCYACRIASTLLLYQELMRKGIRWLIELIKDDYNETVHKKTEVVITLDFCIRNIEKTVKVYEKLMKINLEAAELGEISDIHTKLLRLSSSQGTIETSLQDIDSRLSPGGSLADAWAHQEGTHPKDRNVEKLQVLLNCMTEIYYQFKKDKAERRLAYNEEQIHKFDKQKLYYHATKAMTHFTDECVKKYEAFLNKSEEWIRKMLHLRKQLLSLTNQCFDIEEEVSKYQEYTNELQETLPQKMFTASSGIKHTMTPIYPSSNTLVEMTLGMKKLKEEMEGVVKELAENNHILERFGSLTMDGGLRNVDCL
The assay is described as follows: TBK Biochemical Assay. Particulars: read-out: TBK1 IC50. An outline of the steps: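 Caliper LabChip mobility-shift readout of substrate and product after 90 min of TBK1 reaction at 25° C and stop-buffer addition. Compounds tested in 1:4 serial dilution over 10 points from 30 uM final at 1% DMSO; staurosporine 10 uM final defines full inhibition.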

The target of assay [2] is T2, IKKε (Homo sapiens, UniProt Q14164).
T2 sequence (Q14164 1-716): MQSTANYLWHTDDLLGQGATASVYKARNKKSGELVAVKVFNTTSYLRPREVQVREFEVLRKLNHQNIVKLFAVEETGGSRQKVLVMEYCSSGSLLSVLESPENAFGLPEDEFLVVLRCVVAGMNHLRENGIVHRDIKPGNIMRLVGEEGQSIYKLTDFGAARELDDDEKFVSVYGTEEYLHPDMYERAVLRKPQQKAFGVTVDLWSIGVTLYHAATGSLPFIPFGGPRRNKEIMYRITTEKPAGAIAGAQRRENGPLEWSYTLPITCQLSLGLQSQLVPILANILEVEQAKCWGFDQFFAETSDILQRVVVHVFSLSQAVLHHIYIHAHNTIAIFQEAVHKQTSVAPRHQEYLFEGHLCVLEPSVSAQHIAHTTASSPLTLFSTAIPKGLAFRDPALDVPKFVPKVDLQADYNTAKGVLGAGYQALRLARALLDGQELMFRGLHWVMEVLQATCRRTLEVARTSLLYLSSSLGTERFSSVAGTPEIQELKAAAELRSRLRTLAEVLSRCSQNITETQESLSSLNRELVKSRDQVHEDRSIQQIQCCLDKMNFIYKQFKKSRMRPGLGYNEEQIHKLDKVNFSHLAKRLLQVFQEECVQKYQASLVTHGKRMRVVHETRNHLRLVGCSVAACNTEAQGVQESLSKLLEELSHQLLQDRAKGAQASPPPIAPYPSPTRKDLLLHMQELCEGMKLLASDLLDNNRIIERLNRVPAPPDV
The assay can be described thus: IKKe Biochemical Assay. Particulars: read-out: IKKε IC50. An outline of the steps:
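Activity was measured as mobility-shift separation of phosphorylated from unphosphorylated substrate on a LabChip EZ Reader. Compound was titrated from 30 uM final in 10 points, 1:4 steps, with 1% DMSO, and enzyme plus substrate reacted 90 min at 25° C before stop buffer. Control wells held 10 uM staurosporine.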

By IC50 is commonly meant the concentration at which inhibition is half-maximal.

Turning to `CN(C)C(=O)c1ccc(-c2cc3nccc(-c4ccc(N5CC[C@@H](N(C)C)C5)c(C#N)c4)c3o2)cc1` [Compound 172, 4-{7-[3-Cyano-4-((R)-3-dimethylamino-pyrrolidin-1-yl)-phenyl]-furo[3,2-b]pyridin-2-yl}-N,N-dimethyl-benzamide], the 50% inhibitory concentration (IC50) in assay [1] and in assay [2] was 100 to 1000 nM in each case.
Regarding `COc1cc(C(=O)N2CC(S(C)(=O)=O)C2)ccc1-c1cc2nccc(-c3ccc(OC4CCOCC4)c(C#N)c3)c2o1` [Compound 26, 5-{2-[4-(3-Methanesulfonyl-azetidine-1-carbonyl)-2-methoxy-phenyl]-furo[3,2-b]pyridin-7-yl}-2-(tetrahydro-pyran-4-yloxy)-benzonitrile], the IC50 in assay [1] and in assay [2] was less than 100 nM throughout.
As for `COc1cc(C(=O)N(C)C)ccc1-c1cc2nccc(-c3ccc(N(C)C4CCOCC4)c(C#N)c3)c2o1` [Compound 227, 4-(7-(3-cyano-4-(methyl(tetrahydro-2H-pyran-4-yl)amino)phenyl)furo[3,2-b]pyridin-2-yl)-3-methoxy-N,N-dimethylbenzamide], the 50% inhibitory concentration (IC50) in assay [1] and in assay [2] was less than 100 nM throughout.
As to `COc1cc(C(=O)N2CC3CCCC3C2)ccc1-c1cc2nccc(-c3ccc(OC4CCOCC4)c(C#N)c3)c2o1` (stereo not drawn) [Compound 99, 5-{2-[4-(Hexahydro-cyclopenta[c]pyrrole-2-carbonyl)-2-methoxy-phenyl]-furo[3,2-b]pyridin-7-yl}-2-(tetrahydro-pyran-4-yloxy)-benzonitrile], the half-maximal inhibitory concentration (IC50) in assay [1] and in assay [2] was less than 100 nM throughout.
For `CN(C)C(=O)c1ccc(-c2cc3nccc(-c4ccc(OC5CCOCC5)c(C#N)c4)c3o2)nc1` [Compound 243, 6-(7-(3-cyano-4-(tetrahydro-2H-pyran-4-yloxy)phenyl)furo[3,2-b]pyridin-2-yl)-N,N-dimethylnicotinamide], the IC50 in assay [1] and in assay [2] was less than 100 nM each time.
`COc1cc(C(=O)N(C)CCCO)ccc1-c1cc2nccc(-c3ccc(OC4CCOCC4)c(C#N)c3)c2o1` [Compound 258, 4-(7-(3-cyano-4-(tetrahydro-2H-pyran-4-yloxy)phenyl)furo[3,2-b]pyridin-2-yl)-N-(3-hydroxypropyl)-3-methoxy-N-methylbenzamide hydrochloride]: the IC50 in assay [1] and in assay [2] was less than 100 nM each time.
Consider `COc1cc(C(=O)N(C)C)cc(F)c1-c1cc2nccc(-c3ccc(NC4CCOCC4)c(C#N)c3)c2o1` [Compound 255, 4-(7-(3-cyano-4-(tetrahydro-2H-pyran-4-ylamino)phenyl)furo[3,2-b]pyridin-2-yl)-3-fluoro-5-methoxy-N,N-dimethylbenzamide], for which the IC50 in assay [1] and in assay [2] was less than 100 nM throughout.
With `COc1cc(C(=O)N(C)C)ccc1-c1cc2nccc(-c3ccc(C(C)(C)N4CCOCC4)c(C#N)c3)c2o1` [Compound 235, 4-(7-(3-cyano-4-(2-morpholinopropan-2-yl)phenyl)furo[3,2-b]pyridin-2-yl)-3-methoxy-N,N-dimethylbenzamide hydrochloride], the IC50 in assay [1] and in assay [2] was 100 to 1000 nM throughout.
With `CC1CC(Oc2ccc(-c3ccnc4cc(-c5ccc(C(=O)O)cc5)oc34)cc2C#N)CC(C)O1` (stereo not drawn) [Compound 189], the concentration for half-maximal inhibition (IC50) in assay [1] is greater than 5000 nM; in assay [2], 1000 to 5000 nM.
In the same order, the values of `CC1CC(Oc2ccc(-c3ccnc4cc(-c5ccc(C(=O)N(C)C)cc5)oc34)cc2C#N)CCO1` (stereo not drawn) [Compound 184, 4-{7-[3-Cyano-4-(2-methyl-tetrahydro-pyran-4-yloxy)-phenyl]-furo[3,2-b]pyridin-2-yl}-N,N-dimethyl-benzamide] are 1000 to 5000 nM and 100 to 1000 nM.
As to `CN(C)C(=O)c1ccc(-c2cc3nccc(-c4cc(F)c(NC5CCOCC5)c(C#N)c4)c3o2)cc1` [Compound 224, 4-(7-(3-cyano-5-fluoro-4-(tetrahydro-2H-pyran-4-ylamino)phenyl)furo[3,2-b]pyridin-2-yl)-N,N-dimethylbenzamide hydrochloride], the IC50 in assay [1] is 100 to 1000 nM; in assay [2], less than 100 nM.
The corresponding values for `COc1cc(C(=O)N(C)C)ccc1-c1cc2ncc(Cl)c(-c3ccc(NC4CCOCC4)c(C#N)c3)c2o1` [Compound 266, 4-(6-chloro-7-(3-cyano-4-(tetrahydro-2H-pyran-4-ylamino)phenyl)furo[3,2-b]pyridin-2-yl)-3-methoxy-N,N-dimethylbenzamide] are 100 to 1000 nM and 100 to 1000 nM.
In the same order, the values of `COc1cc(C(=O)N(C)C)ccc1-c1cc2nccc(-c3ccc(OCC4CNC4)c(C#N)c3)c2o1` [Compound 165, 4-{7-[4-(Azetidin-3-ylmethoxy)-3-cyano-phenyl]-furo[3,2-b]pyridin-2-yl}-3-methoxy-N,N-dimethyl-benzamide] are 100 to 1000 nM and 100 to 1000 nM.
In the case of `COc1cc(C(=O)N(C)C)cnc1-c1cc2ncc(OC)c(-c3ccc(NC4CCOCC4)c(C#N)n3)c2o1` [Compound 358, 6-(7-[6-cyano-5-[(oxan-4-yl)amino]pyridin-2-yl]-6-methoxyfuro[3,2-b]pyridin-2-yl)-5-methoxy-N,N-dimethylpyridine-3-carboxamide], the IC50 in assay [1] and in assay [2] was 1000 to 5000 nM in each case.
Take `COc1cc(C(=O)NC2CC3CCC2CC3)ccc1-c1cc2nccc(-c3ccc(OC4CCOCC4)c(C#N)c3)c2o1` (stereo not drawn) [Compound 495]: the IC50 in assay [1] is 100 to 1000 nM; in assay [2], less than 100 nM.
On to `COc1cc(C(=O)N(C)CC(F)F)ccc1-c1cc2nccc(-c3ccc(OC4CCOCC4)c(C#N)c3)c2o1` [Compound 260], for which the IC50 in assay [1] and in assay [2] was less than 100 nM in each case.
Take `CCN(C)C(=O)c1ccc(-c2cc3nccc(-c4ccc(NC5CCOCC5)c(C#N)c4)c3o2)c(OC)c1` [Compound 262, 4-(7-(3-cyano-4-(tetrahydro-2H-pyran-4-ylamino)phenyl)furo[3,2-b]pyridin-2-yl)-N-ethyl-3-methoxy-N-methylbenzamide]: the half-inhibitory concentration (IC50) in assay [1] and in assay [2] was less than 100 nM each time.
Regarding `COc1cc(C(=O)N2CC3CC(C2)O3)ccc1-c1cc2nccc(-c3ccc(OC4CCOCC4)c(C#N)c3)c2o1` [Compound 6, 5-{2-[2-Methoxy-4-(6-oxa-3-aza-bicyclo[3.1.1]heptane-3-carbonyl)-phenyl]-furo[3,2-b]pyridin-7-yl}-2-(tetrahydro-pyran-4-yloxy)-benzonitrile], the half-maximal inhibitory concentration (IC50) in assay [1] and in assay [2] was less than 100 nM throughout.
For `COc1cc(C(=O)N(C)C)ccc1-c1cc2nccc(-c3ccc(OC4CCN(C(=O)OC(C)(C)C)CC4)c(C#N)c3)c2o1` [Compound 182], the IC50 in assay [1] and in assay [2] was greater than 5000 nM each time.
Regarding `COc1cc(C(=O)NC2(C)CCNC2)ccc1-c1cc2nccc(-c3ccc(OC4CCOCC4)c(C#N)c3)c2o1` (stereo not drawn) [Compound 86, 4-{7-[3-Cyano-4-(tetrahydro-pyran-4-yloxy)-phenyl]-furo[3,2-b]pyridin-2-yl}-3-methoxy-N-(3-methyl-pyrrolidin-3-yl)-benzamide hydrochloride], the IC50 in assay [1] and in assay [2] was less than 100 nM throughout.
As to `COc1cc(C(=O)N(C)C)ccc1-c1cc2nccc(-c3ccc(O[C@H]4[C@H](C)COC[C@@H]4C)c(C#N)c3)c2o1` [Compound 232, 4-(7-(3-cyano-4-(3,5-dimethyl-tetrahydro-2H-pyran-4-yloxy)phenyl)furo[3,2-b]pyridin-2-yl)-3-methoxy-N,N-dimethylbenzamide], the half-maximal inhibitory concentration (IC50) in assay [1] and in assay [2] was less than 100 nM throughout.
